# Test results as given in US11634390B2, “Agricultural chemicals” (GLOBACHEM NV, priority 2016, dated 2023).
# Columns and labels:
# Assay type in all cases: in vivo
# Abutilon theophrasti = test: Herbicidal screen, post-emergence spray of seedlings in pots: velvetleaf; details: Abutilon theophrasti, post-emergence, 240 h, assessed 10 days after treatment, read-out: percentage increase in necrosis relative to the control
# Method: (§1) Compounds were screened at four concentrations (100, 50, 25 and 12.5 g/ha) against four weed species (Stellaria media—Chickweed; Abutilon theophrasti—velvetleaf; Amaranthus retroflexus—common amaranthus; Echinochloa crus-galli—Barnyard grass) and maize as a crop species. Seed were sown in 12.5 cm diameter pots (20 per pot for the weed species and 5 for maize). Seedlings were sprayed with 2 ml of compound two weeks after sowing, with 2 ml water used as the control. Each treatment was replicated three times. Plants were maintained at 20° C. and assessed 10 days after treatment. The assessment was based on the % plant in each pot showing growth. The data is presented in Table 1 in which d represents no detected effect at this concentration; c represents a percentage increase in necrosis relative to the control of 0.1-50; b represents a percentage increase in necrosis of 50-80; and a represents a percentage increase in necrosis of 80-100.
# maize = test: Herbicidal screen, post-emergence spray of seedlings in pots: crop species; details: Zea mays, post-emergence, 240 h, assessed 10 days after treatment, read-out: percentage increase in necrosis relative to the control
# Method: as §1
# Stellaria media = test: Herbicidal screen, post-emergence spray of seedlings in pots: Chickweed; details: Stellaria media, post-emergence, 240 h, assessed 10 days after treatment, read-out: percentage increase in necrosis relative to the control
# Method: as §1
# Echinochloa crus-galli = test: Herbicidal screen, post-emergence spray of seedlings in pots: Barnyard grass; details: Echinochloa crus-galli, post-emergence, 240 h, assessed 10 days after treatment, read-out: percentage increase in necrosis relative to the control
# Method: as §1
# Amaranthus retroflexus = test: Herbicidal screen, post-emergence spray of seedlings in pots: common amaranthus; details: Amaranthus retroflexus, post-emergence, 240 h, assessed 10 days after treatment, read-out: percentage increase in necrosis relative to the control
# Method: as §1
# four weed species = test: Herbicidal screen, summary across the four weed species; details: summary in words, 12.5-100 g/ha
# Method: as §1
Compound,pest or weed control at 12.5 g/ha (Abutilon theophrasti) [%],pest or weed control at 25 g/ha (Abutilon theophrasti) [%],pest or weed control at 50 g/ha (Abutilon theophrasti) [%],pest or weed control at 100 g/ha (Abutilon theophrasti) [%],plant injury at 12.5 g/ha (maize) [%],plant injury at 25 g/ha (maize) [%],plant injury at 50 g/ha (maize) [%],plant injury at 100 g/ha (maize) [%],pest or weed control at 12.5 g/ha (Stellaria media) [%],pest or weed control at 25 g/ha (Stellaria media) [%],pest or weed control at 50 g/ha (Stellaria media) [%],pest or weed control at 100 g/ha (Stellaria media) [%],pest or weed control at 12.5 g/ha (Echinochloa crus-galli) [%],pest or weed control at 25 g/ha (Echinochloa crus-galli) [%],pest or weed control at 50 g/ha (Echinochloa crus-galli) [%],pest or weed control at 100 g/ha (Echinochloa crus-galli) [%],pest or weed control at 12.5 g/ha (Amaranthus retroflexus) [%],pest or weed control at 25 g/ha (Amaranthus retroflexus) [%],pest or weed control at 50 g/ha (Amaranthus retroflexus) [%],pest or weed control at 100 g/ha (Amaranthus retroflexus) [%],other results
"Cn1c(C(F)(F)F)cc(=O)n(-c2cc(C(=O)NS(=O)(=O)C3(C)CC3)c(Cl)cc2F)c1=O [Example 7, 2-Chloro-4-fluoro-5-(3-methyl-2,6-dioxo-4-(trifluoromethyl)-3,6-dihydropyrimidin-1(2H)-yl)-N-((1-methylcyclopropyl)sulfonyl)benzamide]",0.1 to 50,80 to 100,80 to 100,80 to 100,0.1 to 50,0.1 to 50,0.1 to 50,50 to 80,0.1 to 50,50 to 80,50 to 80,80 to 100,0.1 to 50,0.1 to 50,50 to 80,80 to 100,80 to 100,80 to 100,80 to 100,80 to 100,herbicidal activity against the weed species (four weed species): good activity across several of the weed species
"Cn1c(C(F)(F)F)cc(=O)n(-c2cc(C(=O)NS(=O)(=O)C3CCCC3)c(Cl)cc2F)c1=O [Example 13, 2-Chloro-N-(cyclopentylsulfonyl)-4-fluoro-5-(3-methyl-2,6-dioxo-4-(trifluoromethyl)-3,6-dihydropyrimidin-1(2H)-yl)benzamide]",0.1 to 50,50 to 80,50 to 80,80 to 100,0.1 to 50,0.1 to 50,0.1 to 50,0.1 to 50,0.1 to 50,0.1 to 50,0.1 to 50,0.1 to 50,0.1 to 50,0.1 to 50,0.1 to 50,0.1 to 50,50 to 80,50 to 80,80 to 100,80 to 100,herbicidal activity against the weed species (four weed species): good activity across several of the weed species
"CN1CCC(S(=O)(=O)NC(=O)c2cc(-n3c(=O)cc(C(F)(F)F)n(C)c3=O)c(F)cc2Cl)C1.Cl (centres unmarked) [Example 5, 2-Chloro-4-fluoro-5-(3-methyl-2,6-dioxo-4-(trifluoromethyl)-3,6-dihydropyrimidin-1(2H)-yl)-N-((1-methylpyrrolidin-3-yl)sulfonyl)benzamide hydrochloride]",0.1 to 50,50 to 80,80 to 100,80 to 100,0.1 to 50,0.1 to 50,0.1 to 50,0.1 to 50,0.1 to 50,0.1 to 50,50 to 80,50 to 80,0.1 to 50,0.1 to 50,0.1 to 50,50 to 80,80 to 100,80 to 100,80 to 100,80 to 100,herbicidal activity against the weed species (four weed species): good activity across several of the weed species
"Cn1c(C(F)(F)F)cc(=O)n(-c2cc(C(=O)NS(=O)(=O)C3CCCCC3)c(Cl)cc2F)c1=O [Example 14, 2-Chloro-N-(cyclohexylsulfonyl)-4-fluoro-5-(3-methyl-2,6-dioxo-4-(trifluoromethyl)-3,6-dihydropyrimidin-1(2H)-yl)benzamide]",50 to 80,50 to 80,80 to 100,80 to 100,0.1 to 50,0.1 to 50,0.1 to 50,0.1 to 50,0.1 to 50,0.1 to 50,50 to 80,80 to 100,0.1 to 50,0.1 to 50,0.1 to 50,0.1 to 50,80 to 100,80 to 100,80 to 100,80 to 100,herbicidal activity against the weed species (four weed species): good activity across several of the weed species
"Cl.Cn1c(C(F)(F)F)cc(=O)n(-c2cc(C(=O)NS(=O)(=O)C3CCNCC3)c(Cl)cc2F)c1=O [Example 2, 2-Chloro-4-fluoro-5-(3-methyl-2,6-dioxo-4-(trifluoromethyl)-3,6-dihydropyrimidin-1(2H)-yl)-N-(piperidin-4-ylsulfonyl)benzamide hydrochloride]",50 to 80,50 to 80,50 to 80,80 to 100,0.1 to 50,0.1 to 50,50 to 80,50 to 80,50 to 80,50 to 80,50 to 80,80 to 100,0.1 to 50,50 to 80,50 to 80,80 to 100,80 to 100,80 to 100,80 to 100,80 to 100,herbicidal activity against the weed species (four weed species): good activity across several of the weed species
"Cn1c(C(F)(F)F)cc(=O)n(-c2cc(C(=O)NS(=O)(=O)C3CC3)c(Cl)cc2F)c1=O [Example 12, 2-Chloro-N-(cyclopropylsulfonyl)-4-fluoro-5-(3-methyl-2,6-dioxo-4-(trifluoromethyl)-3,6-dihydropyrimidin-1(2H)-yl)benzamide]",0.1 to 50,0.1 to 50,0.1 to 50,50 to 80,0.1 to 50,0.1 to 50,0.1 to 50,0.1 to 50,0.1 to 50,0.1 to 50,0.1 to 50,0.1 to 50,0.1 to 50,0.1 to 50,0.1 to 50,0.1 to 50,50 to 80,50 to 80,80 to 100,80 to 100,–
